Laboratory results reported in patent US8507472B2 (priority 2010, dated 2013).
Read-outs that look alike come from different tables or passages of the source.

Assays:
[1] = system: Alternaria solani; assay: Alternaria test (tomato)/protective; assay type: in vivo
Protocol: (§1) Solvent: 49 parts by weight of N,N-dimethylformamide
(§2) Emulsifier: 1 part by weight of alkylaryl polyglycol ether
To produce a suitable preparation of active compound, 1 part by weight of active compound is mixed with the stated amounts of solvent and emulsifier, and the concentrate is diluted with water to the desired concentration.
To test for protective activity, young tomato plants are sprayed with the active compound preparation at the stated application rate. 1 day after the treatment, the plants are inoculated with a spore suspension of Alternaria solani and then remain at 100% rel. humidity and 22° C. for 24 h. The plants then remain at 96% rel. atmospheric humidity and a temperature of 20° C.
(§3) Evaluation is carried out 7 days after the inoculation. 0% means an efficacy which corresponds to that of the control, whereas an efficacy of 100% means that no infection is observed.

[2] = system: Leptosphaeria nodorum; assay: Leptosphaeria nodorum test (wheat)/protective; assay type: in vivo
Protocol: as §1, §2
(§4) To produce a suitable preparation of active compounds, 1 part by weight of active compound is mixed with the stated amounts of solvent and emulsifier, and the concentrate is diluted with water to the desired concentration.
(§5) To test for protective activity, young wheat plants are sprayed with the active compound preparation at the stated application rate. 1 day after the treatment, the plants are inoculated with an aqueous spore suspension of Leptosphaeria nodorum and then remain at 100% rel. atmospheric humidity and 22° C. for 48 h. The plants are then placed in a greenhouse at 90% rel. atmospheric humidity and a temperature of 22° C.
(§6) Evaluation is carried out 7-9 days after the inoculation. 0% means an efficacy which corresponds to that of the control, whereas an efficacy of 100% means that no infection is observed.

[3] = system: Phytophthora infestans; assay type: in vivo
[4] = system: Pyrenophora teres; assay: Pyrenophora teres test (barley)/protective; assay type: in vivo
Protocol: as §1, §2, §4
as §5, with “young barley” for “young wheat”, “of Pyrenophora teres” for “of Leptosphaeria nodorum”, “at 80%” for “at 90%”, “of 20°” for “of 22°”
as §6

[5] = system: DON/AcDON production; assay: microbe, parasite or virus in culture; assay type: cell-based, Fusarium graminearum; conditions: 7 days at 28° C.; for inhibition at 50 µM: Fusarium graminearum, 168 h
[6] = system: Fusarium graminearum; assay: microbe, parasite or virus in culture; assay type: cell-based; conditions: for inhibition at 50 µM: Fusarium graminearum, 72 h, read-out: % inhibition of the fungal growth of Fusarium graminearum at 50 μM
[7] = log P determination by HPLC retention times (alkan-2-one calibration)
[8] = system: Sphaerotheca fuliginea; assay: Sphaerotheca test (cucumber)/protective; assay type: in vivo
Protocol: as §1, §2, §4
To test for protective activity, young cucumber plants are sprayed with the active compound preparation at the stated application rate. 1 day after the treatment, the plants are inoculated with a spore suspension of Sphaerotheca fuliginea. The plants are then placed in a greenhouse at 70% rel. atmospheric humidity and a temperature of 23° C.
as §3

[9] = system: Venturia inaequalis; assay: Venturia test (apple)/protective; assay type: in vivo; conditions: 100 ppm active compound, protective, evaluation 10 days after inoculation
Protocol: Solvents: 24.5 parts by weight of acetone • 24.5 parts by weight of dimethylacetamide Emulsifier: 1 part by weight of alkylaryl polyglycol ether
To produce a suitable preparation of active compound, 1 part by weight of active compound is mixed with the stated amounts of solvents and emulsifier, and the concentrate is diluted with water to the desired concentration.
To test for protective activity, young plants are sprayed with the active compound preparation at the stated application rate. After the spray coating has dried on, the plants are inoculated with an aqueous conidia suspension of the apple scab pathogen Venturia inaequalis and then remain in an incubation cabin at about 20° C. and 100% relative atmospheric humidity for 1 day.
The plants are then placed in a greenhouse at about 21° C. and a relative atmospheric humidity of about 90%.
Evaluation is carried out 10 days after the inoculation. 0% means an efficacy which corresponds to that of the control, whereas an efficacy of 100% means that no infection is observed.

[10] = 500 ppm active compound, tomato, protective, evaluation 7 days after inoculation
[11] = 500 ppm active compound, wheat, protective, evaluation 7-9 days after inoculation
[12] = 500 ppm active compound, barley, protective, evaluation 7-9 days after inoculation
[13] = log P(HCOOH), HCOOH, preparation examples in the text
[14] = log P, values marked [b] in Table 1

| SMILES | efficacy in % ([1]; in vivo) [%] | efficacy in % ([2]; in vivo) [%] | efficacy in % ([4]; in vivo) [%] | % inhibition of DON/AcDON at 50 μM [5] [%] | % inhibition of the fungal growth of Fusarium graminearum at 50 μM [6] [%] | efficacy in % ([3]; in vivo) [%] | efficacy in % ([8]; in vivo) [%] | other results |
| --- | --- | --- | --- | --- | --- | --- | --- | --- |
| Nc1cc(-c2c(-c3ccc(F)cc3)nn3c2CCCC3)ccn1 [Example 3, 4-[2-(4-Fluorophenyl)-4,5,6,7-tetrahydropyrazolo[1,5-a]pyridin-3-yl]pyridine-2-amine] | – | – | – | – | – | – | – | efficacy in % [1, 10]: 95%; efficacy in % [2, 11]: 89%; efficacy in % [3, 10]: 90%; efficacy in % [4, 12]: 95%; inhibition at 50 µM [5]: 94%; inhibition at 50 µM [6]: 30%; chromatographic logP [7, 13]: 1.21; chromatographic logP ([7]; log P, values marked [a] in Table 1): 1.21; chromatographic logP [7, 14]: 2.05 |
| Cc1cc(-c2c(-c3ccc(F)cc3)nn3c2CCCC3)ccn1 [Example 6] | 95 | 70 | 70 | 99 | 70 | – | – | log P ([7]; values marked [a] in Table 1): 1.22^[a];; log P ([7]; values marked [b] in Table 1): 2.67^[b] |
| c1ccc(-c2nn3c(c2-c2ccncc2)CCC3)cc1 [Example 10] | 70 | 80 | 80 | 100 | 87 | 70 | 94 | – |
| Clc1ccc(-c2nn3c(c2-c2ccncc2)CCC3)cc1 [Example 11] | – | 70 | 70 | 100 | 92 | 80 | 88 | – |
| Fc1cc(-c2c(-c3ccc(Cl)cc3)nn3c2CCC3)ccn1 [Example 13] | – | – | 80 | 96 | 17 | – | – | – |
| Nc1cc(-c2c(-c3ccccc3)nn3c2CCCC3)ccn1 [Example 14] | – | – | – | 93 | 24 | 70 | – | – |
| CC(C)(C)OC(=O)Nc1cc(-c2c(-c3ccc(F)cc3)nn3c2CCCC3)ccn1 [Example 16] | – | – | – | 93 | 0 | – | – | – |
| Cc1ccc(-c2nn3c(c2-c2ccncc2)CCC3)cc1 [Example 41] | 70 | – | 95 | 98 | 100 | 70 | – | – |
| FC(F)(F)c1cccc(-c2nn3c(c2-c2ccncc2)CCC3)c1 [Example 42] | – | – | – | 98 | 100 | – | – | – |
| Fc1cccc(-c2nn3c(c2-c2ccncc2)CCC3)c1 [Example 44] | 80 | – | 90 | 100 | 61 | 70 | – | – |
| Fc1ccc(-c2nn3c(c2-c2ccnc(F)c2)CCC3)cc1 [Example 45] | 95 | – | 95 | 100 | 21 | 90 | – | – |
| c1cc(-c2c(-c3ccsc3)nn3c2CCC3)ccn1 [Example 46] | 70 | – | 70 | 100 | 52 | 70 | – | – |
| Fc1cccc(-c2nn3c(c2-c2ccnc(F)c2)CCC3)c1 [Example 54] | 80 | – | – | 100 | 0 | – | – | – |
| CC(C)Nc1cc(-c2c(-c3cccc(F)c3)nn3c2CCC3)ccn1 [Example 56] | – | – | – | 92 | 27 | 80 | – | – |
| COCC(=O)Nc1cc(-c2c(-c3ccsc3)nn3c2CCCC3)ccn1 [Example 60] | – | 78 | 90 | 100 | 100 | – | 90 | – |
| Fc1cc(-c2c(-c3ccccc3)nn3c2CCC3)ccn1 [Example 61, 3-(2-Fluoropyridin-4-yl)-2-phenyl-5,6-dihydro-4H-pyrrolo[1,2-b]pyrazole] | – | – | – | – | – | – | – | efficacy in % [4, 12]: 70%; inhibition at 50 µM [5]: 100%; inhibition at 50 µM [6]: 0%; chromatographic logP [7, 13]: 2.53; chromatographic logP [7, 14]: 2.53 |
| c1csc(-c2nn3c(c2-c2ccncc2)CCCC3)c1 [Example 62] | 94 | 78 | 95 | 100 | 35 | 80 | – | – |
| C[C@@H](O)C(=O)Nc1cc(-c2c(-c3ccsc3)nn3c2CCCC3)ccn1 [Example 66] | 70 | – | 95 | 98 | 50 | 80 | – | – |
| COC(=O)Nc1cc(-c2c(-c3ccsc3)nn3c2CCCC3)ccn1 [Example 67] | 80 | – | 95 | 100 | 60 | 70 | – | – |
| CC(C)Nc1cc(-c2c(-c3ccccc3)nn3c2CCC3)ccn1 [Example 70, 4-[2-(Phenyl)-5,6-dihydro-4H-pyrrolo[1,2-b]pyrazol-3-yl]-N-isopropylpyridine-2-amine] | – | – | – | – | – | – | – | efficacy in % [1, 10]: 90%; efficacy in % [2, 11]: 90%; efficacy in % [3, 10]: 95%; efficacy in % [4, 12]: 80%; efficacy in % ([8]; 500 ppm active compound, cucumber, protective, evaluation 7 days after inoculation): 94%; efficacy in % [9]: 100%; chromatographic logP [7, 13]: 1.21; chromatographic logP [7, 14]: 2.69 |
| CC(C)C(=O)Nc1cc(-c2c(-c3ccc(F)cc3)nn3c2CCOC3(C)C)ccn1 [Example 83] | 89 | 75 | 94 | – | – | 70 | 98 | – |
| CC(=O)Nc1cc(-c2c(-c3ccc(F)cc3)nn3c2CCOC3(C)C)ccn1 [Example 90] | 95 | 89 | 95 | – | – | 78 | 95 | – |
| CC(C)C(=O)Nc1cc(-c2c(-c3ccc(F)cc3)nn3c2COCC3)ccn1 [Example 92] | 90 | 90 | 95 | – | – | 80 | 98 | – |
| O=C(Nc1cc(-c2c(-c3ccc(F)cc3)nn3c2COCC3)ccn1)C1CC1 [Example 93] | 95 | 80 | 100 | – | – | 90 | 98 | – |
| CCC(=O)Nc1cc(-c2c(-c3ccc(F)cc3)nn3c2CCCCC3)ccn1 [Example 96] | 90 | 90 | 100 | – | – | 70 | 95 | – |
| O=C(CC1CC1)Nc1cc(-c2c(-c3ccc(F)cc3)nn3c2COCC3)ccn1 [Example 113] | 90 | 78 | 94 | – | – | 70 | 98 | – |
